One block for each compound: values may come before it.
Experiments:
[1] = test system: transglutaminase 1 (TG1) in human keratinocytes; experiment: Transglutaminase 1 (TG1) ELISA assay of keratinocyte differentiation, normalised to DNA, Example 2; format: cell-based; conditions: for inhibiting keratinocyte TG1 level when used alone, in words: 2.5×10^-7 M retinol or 10^-6 M lactamide-DEA alone, compared with retinoic acid 2.5×10^-7 M
Protocol: Human keratinocytes, isolated from neonatal foreskin by trypsin treatment were grown in Dulbecco Modification Eagle (DME) Hams F12 (1:1) medium/10% fetal calf serum in the presence of irradiated 3T3 mouse fibroblasts for establishing dividing keratinocyte colonies. Cells were grown under the above condition until their second passage and kept frozen for future use. Frozen second passage keratinocytes were thawed and plated into the above medium and grown for five days before they were switched to a serum-free MCDB 153-based medium keratinocyte growth medium (KGM) from Clonetics Corporation, San Diego, Calif. containing 0.15 mM Ca, or keratinocyte serum-free media (KSFM) from GIBCO containing 0.09 mM Ca). On day 7, when the cells were 80-90% confluent, they were trypsinized and plated in the serum-free medium for the various experiments.
(§1) During the process of terminal differentiation in the epidermis, a 15 nm thick layer of protein, known as the cornified envelope (CE) is formed on the inner surface of the cell periphery. The CE is composed of numerous distinct proteins which have been cross-linked together by the formation of N ^ε -(γ-glutamyl) lysine isodipeptide bonds catalyzed by the action of at least two different transglutaminases (TGases) expressed in the epidermis. TGase I is expressed in abundance in the differentiated layers of the epidermis, especially the granular layer, but is absent in the undifferentiated basal epidermis. Thus TGase I is a useful marker of epidermal keratinocyte differentiation with high TGase I levels indicating a more differentiated state. An ELISA based TGase I assay, using a TGase I antibody, was used to assess the state of differentiation of the cultured keratinocytes in the examples that follow.
Keratinocytes (cultured as described above) were plated in 96 well plates at a density of 3,000 cells per well in 200 μl of cell culture media. After incubation for four days, the media was changed to media containing test compounds (six replicates per test). The cells were cultured for a further 72 hours after which time the media was aspirated and the plates stored at -70° C. After the plates were removed from the freezer, the cells were further freezed fractured by freezing and thawing and then washed 3× with PBS. The cells were incubated for one hour at room temperature (R/T) with TBS/5% BSA buffer. Cells were then incubated with 100 μl of monoclonal anti-human transglutaminase (IgG) mouse antibody (primary antibody) obtained from Biomedical Technologies Inc. diluted 1:2000 in TBS/1% BSA buffer for two hours at 37° C., and then rinsed six times with wash buffer (TBS/1% BSA/0.05% Tween-20). Cells were next incubated with 100 μl of Fab fragment, peroxidase conjugated anti-mouse IgG antibody (secondary antibody) from Amersham diluted 1:4,000 in wash buffer for two hours at 37° C. and then rinsed three times with wash buffer and three times with PBS. Cells were incubated with substrate solution (4 mg o-phenylene diamine and 3.3 μl 30% H2 O2 in 1O ml 0.1M citrate buffer, pH 5.0) for five minutes at R/T and in darkness (under aluminum foil). The reaction was stopped by the addition of 50 μl 4N H2SO4. The absorbance of samples was read at 492 nm in the plate reader. Out of the six replicates, four were treated with both antibodies, two were treated only with the secondary antibody (i.e., to determine the background binding of the enzyme conjugated antibody). Transglutaminase I levels were determined by subtracted background from the readings from each treatment and determining the mean s.d. for the replicates exposed to both antibodies.
The level of TGase-1 detected after treatment of the cells could be influenced by cell number, i.e., the greater the number of cells the greater the level of TGase-1 detected. The level of TGase-1 was normalized to DNA content of the cells in the same well thus eliminating variation due to differences in cell number. […]

[2] = test system: Transglutaminase (TGase I) in human keratinocytes; experiment: Transglutaminase (TGase I ELISA) assay of keratinocyte differentiation, normalized to DNA, Example 1; format: cell-based; conditions: 2.5×10^-7 M, 2.5×10^-8 M and 2.5×10^-9 M
Protocol: Human keratinocytes, isolated from neonatal foreskin by trypsin treatment were grown in Dulbecco Modification Eagle (DME) Hams F12 (1:1) medium/10% fetal calf serum in the presence of irradiated 3T3 mouse fibroblasts for establishing dividing keratinocyte colonies. Cells were grown under the above condition until their second passage and kept frozen for future use. […] On day 7, when the cells were 80-90% confluent, they were trypsinized and plated in the serum-free medium for the various experiments.
as §1, with “Thus TGase I is a useful marker of epidermal keratinocyte differentiation with high TGase I levels indicating a more differentiated state. An ELISA based TGase I assay, using a TGase I antibody, was used to assess the state of differentiation of the cultured keratinocytes in the examples that follow.” left out
Keratinocytes (cultured as described above) were plated in 96 well plates at a density of 3,000 cells per well in 200 μl media. […] The absorbance of samples was read at 492 nm in the plate reader. […] TGase levels were determined by subtracting background from the readings from each treatment and determining mean ±s.d. for the replicates exposed to both Ab.
The level of TGase-1 was normalized to DNA content of the cells in the same well thus eliminating variation due to differences in cell number. DNA quantitation is a particularly useful indicator of cell number, including keratinocyte cell number, because each cell has to all intents and purposes an identical genome and therefore an identical quantity of DNA The total DNA content of a well of cells therefore is directly proportional to the cell number in that well. Quantitation of DNA was used to normalize the TGase data to cell number. […]

[3] = Homo sapiens, Keratinocyte, Table 2A, 2.5 × 10^-8 M, 72 hour treatment, n = 3, read-out: TGase/DNA (% control)
[4] = Homo sapiens, Keratinocyte, Table 2B, 2.5 × 10^-7 M, 72 hour treatment, n = 3, read-out: TGase/DNA (% control)
[5] = Table 2A, 2.5 × 10^-8 M, 72 hour treatment, n = 3, control 18.42 ± 3.88
[6] = Table 2B, 2.5 × 10^-7 M, 72 hour treatment, n = 3, control 64.11 ± 2.91

SMILES: CCCCCCCCCCC(O)CC(N)=O (stereo not drawn) [C13-β-hydroxy-acid amide, C13 β-hydroxy acid amide]
inhibitory effect on keratinocyte TG1 level when used alone, in words ([1]; 10^-8 M, amide alone): no inhibitory effect | activity at 0.01 µM ([1]; Homo sapiens, Keratinocyte, Table 2A, 10^-8 M, 72 hour treatment, n = 3, read-out: TGase/DNA (% control)): 101% | mean TGase/DNA × 10^5 ± s.d ([1]; Table 2A, 10^-8 M, 72 hour treatment, n = 3, control 18.42 ± 3.88): 18.53 ± 4.58

decrease in transglutaminase level, dose dependence [2]: dose dependent | inhibiting keratinocyte TG1 level when used alone, in words [1]: less effective
SMILES: CC1=C(/C=C/C(C)=C/C=C/C(C)=C/CO)C(C)(C)CCC1 [Retinol, retinol]
effect on keratinocyte differentiation, in words (summary of Examples 1 and 2) [1]: completely ineffective at decreasing keratinocyte differentiation | activity at 0.025 µM [1, 3]: 79% | activity at 0.25 µM [1, 4]: 91% | mean TGase/DNA × 10^5 ± s.d [1, 5]: 14.62 ± 2.99 | mean TGase/DNA × 10^5 ± s.d [1, 6]: 58.47 ± 6.25

SMILES: CC1=C(/C=C/C(C)=C/C=C/C(C)=C/C(=O)O)C(C)(C)CCC1 [Retinoic acid, retinoic acid]
decrease in transglutaminase level, dose dependence [2]: dose dependent | effect on keratinocyte differentiation (transglutaminase level), in words ([2]; vs ethanol control and corresponding retinol treatments): decreased keratinocyte differentiation over both the ethanol control and did so to a significantly greater extent than each of the corresponding 2.5×10^-7 M, 2.5×10^-8 M and 2.5×10^-9 M retinol treatments | effect on keratinocyte differentiation, in words (summary of Examples 1 and 2) [1]: in a dose dependent manner, decreased keratinocyte differentiation | activity at 0.025 µM [1, 3]: 6% | activity at 0.25 µM [1, 4]: 73% | mean TGase/DNA × 10^5 ± s.d [1, 5]: 1.05 ± 1.05 | mean TGase/DNA × 10^5 ± s.d [1, 6]: 46.71 ± 7.83

inhibiting keratinocyte TG1 level when used alone, in words [1]: less effective
SMILES: CC(O)C(=O)NCCO (centres unmarked) [lactamide-MEA, lactamide monoethanolamide]
activity at 1 µM ([1]; Homo sapiens, Keratinocyte, Table 2B, 10^-6 M, 72 hour treatment, n = 3, read-out: TGase/DNA (% control)): 86% | mean TGase/DNA × 10^5 ± s.d ([1]; Table 2B, 10^-6 M, 72 hour treatment, n = 3, control 64.11 ± 2.91): 55.22 ± 2.43
